Experimental data reported in paper PMC8623179, “Design and Microwave Synthesis of New (5Z) 5-Arylidene-2-thioxo-1,3-thiazolinidin-4-one and (5Z) 2-Amino-5-arylidene-1,3-thiazol-4(5H)-one as New Inhibitors of Protein Kinase DYRK1A” (Pharmaceuticals, 2021).
Where two headings read alike, the source gives them in different places.

Key:
DYRK1A [1] = conditions: reported, cited from earlier work
DYRK1A [2] = molecular target: T1, DYRK1A (Rattus norvegicus, UniProt Q63470); assay: DYRK1A kinase assay; assay type: biochemical; conditions: Table 4; 15 μM ATP
T1 construct: GST; made in house; host or cells: Escherichia coli
Method: (§1) The twenty-two (5Z) 5-arylidene-2-thioxo-1,3-thiazolidin-4-ones 3a–v and the twenty-four (5Z) 2-amino-5-arylidene-1,3-thiazolidin-4(5H)-ones 5a–x were evaluated against four different and representative in vitro kinase assays DYRK1A (dual specificity tyrosine phosphorylation regulated kinase), CK1 δ/e (caseine kinase 1), CDK5/p25 (cyclin dependant kinase), and GSK3 α/β (glycogen synthase kinase 3) to evaluate their inhibition potency. […] All the compounds were initially tested at a 10 μM concentration.
After 30-min incubation at 30 °C, the reaction was stopped by harvesting, using a FilterMate harvester (Packard), onto P81 phospho-cellulose papers (GE Healthcare, Chicago, IL, USA) which were washed in 1% phosphoric acid. Scintillation fluid was added and the radioactivity measured in a Packard counter. Blank values were subtracted and activities calculated as pmoles of phosphate incorporated for the 30-min incubation. The activities were expressed in % of the maximal activity, i.e., in the absence of inhibitors. Controls were performed with appropriate dilutions of DMSO. […]

Casein kinase 1 (CK1δ/ε) = assay: CK1δ/ε kinase assay; assay type: biochemical, porcine; conditions: Table 4; 15 μM ATP; read-out: IC50 CK1
Method: as §1
(§2) After 30-min incubation at 30 °C, the reaction was stopped by harvesting, using a FilterMate harvester (Packard), onto P81 phospho-cellulose papers (GE Healthcare, Chicago, IL, USA) which were washed in 1% phosphoric acid. Scintillation fluid was added and the radioactivity measured in a Packard counter. Blank values were subtracted and activities calculated as pmoles of phosphate incorporated for the 30-min incubation. The activities were expressed in % of the maximal activity, i.e., in the absence of inhibitors. Controls were performed with appropriate dilutions of DMSO.
Casein kinase 1 (CK1δ/ε) (porcine brain, native) was assayed with 0.67 µg of CKS peptide ([…]pSAYSITA), a CK1 specific substrate obtained from Millegen (Labege, France).

GSK-3α/β = GSK-3α/β kinase assay; assay type: biochemical, porcine; conditions: Table 4; 15 μM ATP; read-out: IC50 GSK3α/β
Method: as §1, §2
GSK-3α/β (porcine brain, native) was assayed, as described for CDK5/p25 but in Buffer A and using a GSK-3 specific substrate (GS-1: […]pEDEEE) (pS stands for phosphorylated serine). GS-1 was synthesized by Millegen (Labege, France).

CDK5/p25 = molecular target: T2, CDK5/p25 (Homo sapiens, UniProt Q00535); assay: CDK5/p25 kinase assay; assay type: biochemical; conditions: Table 4; 15 μM ATP
T2 construct: made in house
T2 sequence (Q00535 whole entry): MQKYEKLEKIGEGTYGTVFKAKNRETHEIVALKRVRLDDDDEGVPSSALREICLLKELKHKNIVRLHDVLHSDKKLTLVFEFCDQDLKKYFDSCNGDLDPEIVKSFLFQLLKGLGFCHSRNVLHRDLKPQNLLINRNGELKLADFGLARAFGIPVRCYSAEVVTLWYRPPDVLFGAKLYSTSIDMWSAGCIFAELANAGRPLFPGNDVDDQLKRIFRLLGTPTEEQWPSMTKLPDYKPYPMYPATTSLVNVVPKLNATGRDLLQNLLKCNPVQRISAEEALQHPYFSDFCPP
T2 sequence (Q15078 99-307 partner limits assumed): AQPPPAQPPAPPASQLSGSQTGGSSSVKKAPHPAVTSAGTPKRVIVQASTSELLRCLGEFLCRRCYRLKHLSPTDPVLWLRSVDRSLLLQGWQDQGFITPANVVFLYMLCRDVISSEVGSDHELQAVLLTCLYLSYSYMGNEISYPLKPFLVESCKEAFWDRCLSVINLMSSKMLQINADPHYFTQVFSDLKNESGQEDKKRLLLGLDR
Method: as §1, §2
CDK5/p25 (human, recombinant) was prepared as previously described. […] ATP (3000 Ci/mmol; 10 mCi/mL) in a final volume of 30 μL. After 30-min incubation at 30 °C, 25 μL aliquots of supernatant were spotted onto 2.5 × 3 cm pieces of Whatman P81 phospho-cellulose paper, and, 20 s later, the filters were washed five times (for at least 5 min each time) in a solution of 10 mL phosphoric acid/litter of water. The wet filters were counted in the presence of 1 mL ACS (Amersham, UK) scintillation fluid.

HCT116 = assay: Cell survival assay, HCT116; assay type: cell-based; conditions: Homo sapiens, HCT-116
Method: (§3) Skin diploid fibroblastic cells were provided by BIOPREDIC International Company (Rennes, France). […] Cells were grown according to ECACC recommendations. The toxicity test of the compounds on these cells was as follows: 2 × 10^3 cells for HCT-116 cells or 4 × 10^3 for the other cells were seeded in 96-multi-well plates in triplicate and left for 24 h for attachment, spreading and growing. Then, cells were exposed for 48 h to increasing concentrations of the compounds, ranging from […], in a final volume of 120 μL of culture medium. […] The IC50 were graphically determined.

MDA-MB231 = assay: Cell survival assay, MDA-MB231; assay type: cell-based; conditions: Homo sapiens, MDA-MB-231; 48 h exposure, nuclei count; read-out: Cell Lines IC50 MDA-MB231
Method: as §3

PC3 = assay: Cell survival assay, PC3; assay type: cell-based; conditions: Homo sapiens, PC-3; 48 h exposure, nuclei count; read-out: Cell Lines IC50 PC3
Method: as §3

Fibroblasts = assay: Cell survival assay, normal skin diploid fibroblasts; assay type: cell-based; conditions: Fibroblast; normal cells, 48 h exposure, nuclei count; read-out: Cell Lines IC50 Fibroblasts
Method: as §3

NCI-H727 = assay: Cell survival assay, NCI-H727; assay type: cell-based; conditions: Homo sapiens, 48 h exposure, nuclei count, read-out: Cell Lines IC50 NCI-H727
Method: as §3

Huh7 D12 = assay: Cell survival assay, Huh7 D12; assay type: cell-based; conditions: Huh-7D12; 48 h exposure, nuclei count; read-out: Cell Lines IC50 Huh7 D12
Method: as §3

Caco2 = assay: Cell survival assay, Caco2; assay type: cell-based; conditions: Homo sapiens, Caco-2
Method: as §3

[3] = 48 h exposure, nuclei count, read-out: Cell Lines IC50 HCT116
[4] = 48 h exposure, nuclei count, read-out: Cell Lines IC50 Caco2

Molecule | IC50 (DYRK1A [2]) [µM] | IC50 (Casein kinase 1 (CK1δ/ε)) [µM] | IC50 (GSK-3α/β) [µM] | melting point [°C] | IC50 (CDK5/p25) [µM] | IC50 (DYRK1A [1]) [µM] | also measured
O=C1NC(Nc2ccccc2)=N/C1=C\c1ccc2c(c1)OCO2 [Leucettine L41] | – | – | – | – | – | – | IC50 (DYRK1A [1]; Figure 1): 0.04 µM
O=c1oc2ccc(O)cc2c2c1[nH]c1ccc(O)cc12 [XI] | – | – | – | – | – | 0.067 | –
COc1cc(C)c(-c2c3c4cc(OC)c(O)cc4oc(=O)c3n3ccc4cc(O)c(OC)cc4c23)cc1O [XII] | – | – | – | – | – | 0.042 | –
CN(Cc1cccs1)c1ncnc2ccc(-c3ccc4c(c3)OCO4)cc12 [VI] | – | – | – | – | – | 0.014 | –
2-(pyridin-3-yl)-1H-indol-6-ol | – | – | – | – | – | 0.06 | –

The next lines start with results.

IC50 (DYRK1A [2]) [µM] | IC50 (Casein kinase 1 (CK1δ/ε)) [µM] | IC50 (GSK-3α/β) [µM] | melting point [°C] | IC50 (CDK5/p25) [µM] | Molecule | IC50 (DYRK1A [1]) [µM] | also measured
0.7 | > 10 | > 10 | > 260 | > 10 | O=C1NC(=S)S/C1=C\c1cc(Br)c2c(c1)OCO2 [Compound 3i, (5Z)-5-[(7-Bromo-1,3-benzodioxol-5-yl)methylene]-2-thioxo-1,3-thiazolidin-4-one] | – | –
15 | > 10 | – | 246 to 250 | > 10 | O=C1NC(=S)S/C1=C\c1cc2ccccc2o1 [Compound 3l, (5Z)-5-(1-Benzofuran-2-ylmethylene)-2-thioxo-1,3-thiazolidin-4-one] | – | –
0.064 | ≥ 10 | 8 | – | – | COc1cc(/C=C2\SC(=S)NC2=O)ccc1O [Compound 3c, (5Z)-5-(4-Hydroxy-3-methoxybenzylidene)-2-thioxo-1,3-thiazolidin-4-one] | – | IC50 (HCT116; [3]): 12 µM; IC50 (MDA-MB231): > 25 µM; IC50 (PC3): > 25 µM; IC50 (Fibroblasts): > 25 µM; IC50 (NCI-H727): > 25 µM; IC50 (Huh7 D12): > 25 µM; IC50 (Caco2; [4]): > 25 µM
0.056 | > 10 | ≤ 10 | 250 to 252 | > 10 | O=C1NC(=S)S/C1=C\c1ccc2c(c1)OCCO2 [Compound 3f, (5Z)-5-(2,3-Dihydro-1,4-benzodioxin-6-ylmethylene)-2-thioxo-1,3-thiazolidin-4-one] | – | IC50 (HCT116; [3]): > 25 µM; IC50 (MDA-MB231): > 25 µM; IC50 (PC3): > 25 µM; IC50 (Fibroblasts): > 25 µM; IC50 (NCI-H727): > 25 µM; IC50 (Huh7 D12): > 25 µM; IC50 (Caco2; [4]): > 25 µM
0.09 | > 10 | ≥ 10 | 250 to 252 | > 10 | O=C1NC(=S)S/C1=C\c1ccc2c(c1)CCO2 [Compound 3g, (5Z)-5-(2,3-Dihydro-benzofuran-5-ylmethylene)-2-thioxo-1,3-thiazolidin-4-one] | – | IC50 (HCT116; [3]): > 25 µM; IC50 (HCT116; read-out: IC50 HCT 116): 6 µM; IC50 (MDA-MB231): > 25 µM; IC50 (PC3): > 25 µM; IC50 (Fibroblasts): > 25 µM; IC50 (NCI-H727): > 25 µM; IC50 (Huh7 D12): > 25 µM; IC50 (Caco2; [4]): > 25 µM; IC50 (Caco2; read-out: IC50 Caco2): 8 µM
> 10 | > 10 | > 10 | 210 to 212 | > 10 | O=C1NC(=S)S/C1=C\c1ccc(O)c(O)c1 [Compound 3j, (5Z)-5-(3,4-Dihydroxybenzylidene)-2-thioxo-1,3-thiazolidin-4-one] | – | –
